Data reported in ChEMBL document CHEMBL3259698, “Reductions in log P improved protein binding and clearance predictions enabling the prospective design of cannabinoid receptor (CB1) antagonists with desired pharmacokinetic properties” (J Med Chem, 2013).
Values after ≈ are worked out from the molar mass of the structure shown.

How the values were obtained:
Cannabinoid receptor 1 = Cannabinoid receptor 1 (Homo sapiens, UniProt P21554); assay: Binding affinity to human CB1 receptor expressed in CHO cells by radioligand displacement based scintillation counting analysis; format: cell-based
Sequence of Cannabinoid receptor 1 (P21554 whole entry): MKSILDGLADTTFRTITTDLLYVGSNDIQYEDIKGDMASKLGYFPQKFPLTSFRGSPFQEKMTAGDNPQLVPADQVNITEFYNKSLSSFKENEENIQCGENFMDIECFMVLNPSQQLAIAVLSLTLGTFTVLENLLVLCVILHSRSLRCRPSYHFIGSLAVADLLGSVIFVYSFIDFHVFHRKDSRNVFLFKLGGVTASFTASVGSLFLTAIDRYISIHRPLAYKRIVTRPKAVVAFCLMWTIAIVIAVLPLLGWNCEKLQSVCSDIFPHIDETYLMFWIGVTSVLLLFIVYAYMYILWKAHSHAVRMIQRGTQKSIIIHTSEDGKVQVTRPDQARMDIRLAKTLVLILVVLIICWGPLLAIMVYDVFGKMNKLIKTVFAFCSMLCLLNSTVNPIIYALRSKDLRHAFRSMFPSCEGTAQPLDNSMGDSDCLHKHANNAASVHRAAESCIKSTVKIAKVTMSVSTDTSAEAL

Cytochrome P450 2C9 = Cytochrome P450 2C9 (Homo sapiens, UniProt P11712); assay: Inhibition of human recombinant CYP2C9; format: ADME
Sequence of Cytochrome P450 2C9 (P11712 whole entry): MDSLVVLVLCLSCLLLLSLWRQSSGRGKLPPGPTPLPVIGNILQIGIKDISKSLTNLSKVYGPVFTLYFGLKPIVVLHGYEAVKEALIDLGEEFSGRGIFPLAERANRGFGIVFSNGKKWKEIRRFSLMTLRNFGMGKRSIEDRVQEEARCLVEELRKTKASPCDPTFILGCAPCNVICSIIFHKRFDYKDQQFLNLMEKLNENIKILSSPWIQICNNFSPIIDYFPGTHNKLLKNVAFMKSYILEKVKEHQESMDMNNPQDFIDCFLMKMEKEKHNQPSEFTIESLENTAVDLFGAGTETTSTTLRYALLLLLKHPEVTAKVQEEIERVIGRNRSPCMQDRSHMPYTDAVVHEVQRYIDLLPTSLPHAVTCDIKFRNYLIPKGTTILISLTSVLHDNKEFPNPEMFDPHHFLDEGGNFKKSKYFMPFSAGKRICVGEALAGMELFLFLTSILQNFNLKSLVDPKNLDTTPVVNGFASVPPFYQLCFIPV

Cytochrome P450 2C19 = Cytochrome P450 2C19 (Homo sapiens, UniProt P33261); assay: Inhibition of human recombinant CYP2C19; format: ADME
Sequence of Cytochrome P450 2C19 (P33261 whole entry): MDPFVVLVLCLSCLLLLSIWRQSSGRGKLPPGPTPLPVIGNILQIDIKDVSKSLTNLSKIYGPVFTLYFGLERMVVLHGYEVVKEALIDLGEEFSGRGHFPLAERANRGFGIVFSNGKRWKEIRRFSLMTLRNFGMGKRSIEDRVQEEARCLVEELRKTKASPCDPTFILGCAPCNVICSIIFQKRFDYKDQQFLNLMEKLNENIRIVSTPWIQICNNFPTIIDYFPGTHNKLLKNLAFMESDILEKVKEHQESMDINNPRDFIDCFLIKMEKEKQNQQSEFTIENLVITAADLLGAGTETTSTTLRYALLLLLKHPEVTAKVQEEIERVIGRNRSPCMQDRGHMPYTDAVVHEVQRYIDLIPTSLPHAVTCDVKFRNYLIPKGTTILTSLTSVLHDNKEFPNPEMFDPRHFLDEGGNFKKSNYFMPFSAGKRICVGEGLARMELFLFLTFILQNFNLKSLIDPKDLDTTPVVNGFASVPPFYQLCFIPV

Cytochrome P450 3A4 [1] = molecular target: T1, Cytochrome P450 3A4 (Homo sapiens, UniProt P08684); assay: Inhibition of human recombinant CYP3A4
T1 sequence (P08684 whole entry): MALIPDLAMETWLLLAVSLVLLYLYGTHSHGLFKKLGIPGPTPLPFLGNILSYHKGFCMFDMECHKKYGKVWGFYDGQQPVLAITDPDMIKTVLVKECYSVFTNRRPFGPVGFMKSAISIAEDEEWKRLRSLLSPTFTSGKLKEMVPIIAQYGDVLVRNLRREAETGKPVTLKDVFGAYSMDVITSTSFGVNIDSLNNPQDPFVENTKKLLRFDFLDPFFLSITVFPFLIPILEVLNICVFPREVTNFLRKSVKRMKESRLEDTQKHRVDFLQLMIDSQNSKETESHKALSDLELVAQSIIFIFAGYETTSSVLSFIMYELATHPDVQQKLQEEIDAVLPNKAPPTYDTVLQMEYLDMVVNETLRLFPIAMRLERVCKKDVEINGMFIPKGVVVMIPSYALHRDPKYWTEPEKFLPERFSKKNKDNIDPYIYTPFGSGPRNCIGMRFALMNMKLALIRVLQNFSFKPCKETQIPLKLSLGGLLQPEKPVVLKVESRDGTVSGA

[2] = Lipophilicity, log P of the compound by HPLC analysis; format: physicochemical
[3] = Clearance in Sprague-Dawley rat at 3 mg/kg, iv; details: in vivo
[4] = Terminal half life in Sprague-Dawley rat at 3 mg/kg, iv; format: ADME, organism-based; parameters: dose 3 mg/kg, route intravenous; details: in vivo, read-out: beta t1/2 (converted)
[5] = Aqueous solubility of the compound; format: physicochemical; details: buffer
Rattus norvegicus [6] = assay: Reduction in food intake in nonfasted Sprague-Dawley rat at 3 mg/kg, po measured for 8 hrs; format: functional; parameters: scale not given: the % may be the effect or the level left
Rattus norvegicus [7] = assay: Reduction in food intake in nonfasted po dosed Sprague-Dawley rat measured for 8 hrs; format: functional; details: read-out: MED
Liver microsome = assay: Clearance in rat liver microsomes at 1 to 3 uM after 20 mins by LC/MS/MS analysis
[8] = Fraction unbound in rat plasma at 10 uM by equilibrium dialysis method; format: ADME, cell-free
[9] = Elimination half life in iv dosed cynomolgus monkey; format: ADME, organism-based, Macaca fascicularis; details: in vivo, read-out: beta t1/2 (converted)
[10] = Elimination half life in iv dosed dog; format: ADME, organism-based, Canis lupus familiaris; details: in vivo, read-out: beta t1/2 (converted)
Cytochrome P450 3A4 [11] = molecular target: T1, Cytochrome P450 3A4; assay: Inhibition of CYP3A4 in human liver microsomes; format: ADME
[12] = Oral bioavailability in Sprague-Dawley rat; format: ADME, organism-based; details: in vivo
Cytochrome P450 3A4 [13] = molecular target: T1, Cytochrome P450 3A4; assay: Inhibition of CYP3A4 in human hepatocytes; format: ADME, cell-based, Hepatocyte
Rattus norvegicus [14] = assay: Antiobesity activity in rat assessed as reduction in food intake at 10 mg/kg; format: functional; parameters: scale not given: the % may be the effect or the level left
[15] = Oral bioavailability in dog; format: ADME, organism-based, Canis lupus familiaris; details: in vivo
Rattus norvegicus [16] = assay: Antiobesity activity in rat assessed as reduction in body weight at 10 mg/kg, qd after 4 days; format: functional; parameters: scale not given: the % may be the effect or the level left
[17] = Cmax in rat at 10 mg/kg, qd; format: ADME, organism-based; parameters: dose 10 mg/kg; details: in vivo
[18] = Oral bioavailability in cynomolgus monkey; format: ADME, organism-based, Macaca fascicularis; details: in vivo
Rattus norvegicus [19] = assay: Reduction in food intake in nonfasted Sprague-Dawley rat at 10 mg/kg, po measured for 8 hrs; format: functional; parameters: scale not given: the % may be the effect or the level left
[20] = AUC (0 to 24 hrs) in rat at 10 mg/kg, qd; format: ADME, organism-based; parameters: time < 24 hr, dose 10 mg/kg; details: plasma

Row | SMILES | Ki (Cannabinoid receptor 1) | logP [2] | IC50 (Cytochrome P450 2C9) | IC50 (Cytochrome P450 2C19) | half-life [4] | other results
1 | CCn1nc2c(-c3ccc(Cl)cc3)c(-c3ccncc3F)c(=O)n(Cc3ccc(C(F)(F)F)nc3C)n2c1=O | 3.2 nM | 4.3 | 14000 nM | 5000 nM | – | IC50 (Cytochrome P450 3A4 [1]): 7000 nM
2 | CCn1nc2c(-c3ccc(Cl)cc3)c(-c3ccncc3)c(=O)n(Cc3ccc(C(F)(F)F)nc3)n2c1=O | 15 nM | 4 | 4900 nM | 11000 nM | 2.4 h | clearance [3]: 37 mL/min/kg; IC50 (Cytochrome P450 3A4 [1]): 18000 nM
3 | Cn1nc2c(-c3ccc(Cl)cc3)c(-c3ccncc3)c(=O)n(Cc3ccc(C(F)(F)F)nc3)n2c1=O | 28 nM | – | 1900 nM | 4300 nM | 6 h | solubility [5]: 40 µg/mL (≈ 78 µM); Activity (Rattus norvegicus [6]): 21%; minimal effective dose (Rattus norvegicus [7]): 3 mg/kg
4 | CCn1nc2c(-c3ccc(Cl)cc3)c(-c3ccc(C#N)cc3)c(=O)n(Cc3ccc(C)cc3)n2c1=O | 12 nM | 5.2 | – | – | – | –
5 | CCn1nc2c(-c3ccc(Cl)cc3)c(-c3ccc(C#N)cc3)c(=O)n(Cc3ccc(C#N)cc3)n2c1=O | 5 nM | 4.2 | – | – | – | fraction unbound at 10 µM [8]: 0.01; half-life [9]: 8 h; half-life [10]: 45 h
6 | Cc1nc(C(F)(F)F)ccc1Cn1c(=O)c(-c2ccncc2)c(-c2ccc(Cl)cc2)c2nn(C)c(=O)n21 | 9 nM | – | 2900 nM | 700 nM | 3.3 h | clearance [3]: 6.3 mL/min/kg; Activity (Rattus norvegicus [6]): 33%; minimal effective dose (Rattus norvegicus [7]): 3 mg/kg; IC50 (Cytochrome P450 3A4 [1]): 6800 nM
7 | O=c1[nH]n2c(=O)n(Cc3ccc(C(F)(F)F)nc3)nc2c(-c2ccncc2)c1-c1ccc(Cl)cc1 | 4000 nM | 2.5 | – | – | – | –
8 | CCn1nc2c(-c3ccc(Cl)cc3)c(-c3ccncc3)c(=O)n(Cc3ccc(C(F)(F)F)nc3C)n2c1=O | 4.5 nM | 3.9 | 4200 nM | 2600 nM | 5 h | IC50 (Cytochrome P450 3A4 [11]): 9100 nM; bioavailability [12]: 50%; IC50 (Cytochrome P450 3A4 [13]): 3000 nM; Activity (Rattus norvegicus [14]): 43%; bioavailability [15]: 40%; Activity (Rattus norvegicus [16]): 4%; Cmax [17]: 4 µM; bioavailability [18]: 15%; minimal effective dose (Rattus norvegicus [7]): 10 mg/kg; Activity (Rattus norvegicus [19]): 51%; half-life [9]: 6 h; AUC at 24 h [20]: 48 µM·h; half-life [10]: 38 h
9 | Cc1nn2c(=O)n(Cc3ccc(C(F)(F)F)nc3)nc2c(-c2ccncc2)c1-c1ccc(Cl)cc1 | 210 nM | 3.3 | – | – | – | –

More lines, main results first:

Row | Ki (Cannabinoid receptor 1) | logP [2] | SMILES | IC50 (Cytochrome P450 2C9) | IC50 (Cytochrome P450 2C19) | half-life [4] | other results
10 | 2.9 nM | 4.6 | CCn1nc2c(-c3ccc(C)cc3)c(-c3ccc(C#N)cc3)c(=O)n(Cc3ccc(C(F)(F)F)nc3C)n2c1=O | – | – | – | CLH (Liver microsome): 0.052 nmol/min/mg
11 | 3 nM | 5 | CCn1nc2c(-c3ccc(Cl)cc3)c(-c3ccc(C#N)c(C)c3)c(=O)n(Cc3ccc(C(F)(F)F)nc3C)n2c1=O | – | – | – | CLH (Liver microsome): 0 nmol/min/mg
12 | 1.6 nM | 5 | CCc1nc(C(F)(F)F)ccc1Cn1c(=O)c(-c2ccc(C#N)cc2)c(-c2ccc(Cl)cc2)c2nn(CC)c(=O)n21 | – | – | – | CLH (Liver microsome): 0.152 nmol/min/mg
13 | 1.4 nM | 4.6 | CCn1nc2c(-c3ccc(Cl)cc3)c(-c3ccc(C#N)cc3)c(=O)n(Cc3ccc(C(F)(F)F)nc3C)n2c1=O | > 40000 nM | > 40000 nM | 7 h | solubility [5]: 3 µg/mL (≈ 5.31 µM); IC50 (Cytochrome P450 3A4 [1]): > 40000 nM; half-life [9]: 40 h; half-life [10]: 70 h
14 | 1.9 nM | 5.2 | Cc1nc(C(F)(F)F)ccc1Cn1c(=O)c(-c2ccc(C#N)cc2)c(-c2ccc(Cl)cc2)c2nn(C(C)C)c(=O)n21 | – | – | – | CLH (Liver microsome): 0.014 nmol/min/mg
